≈ marks a conversion by molar mass, not a printed value.
Legend:
[1] = tested on: Escherichia coli (E. coli) BAS849; assay: Antibacterial activity, microbroth dilution MIC (Table 1); type: cell-based; conditions: microbroth dilution, super sensitive Gram-negative E. coli BAS849, read-out: MIC, BAS849
Summary of the method: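 MIC (μg/mL) is taken as the lowest concentration with no macroscopically visible growth. Strains tested by microbroth dilution: Gram-positive S. aureus 29213, control Gram-negative E. coli 25922, and super-sensitive E. coli BAS849.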

[2] = tested on: Staphylococcus aureus (S. aureus) 29213; assay: as above; type: cell-based; conditions: microbroth dilution, Gram-positive S. aureus 29213, read-out: MIC, 29213
Summary of the method: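 Values are MICs (μg/mL): the smallest drug amount at which macroscopically visible bacterial growth is absent under assay conditions, from a microdilution method in broth.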

[3] = tested on: E. coli LZ3111; assay: Antibacterial activity, MIC, quinolone resistant strain (Table 2); type: cell-based; conditions: Escherichia coli, LZ3111, read-out: MIC LZ3111
Summary of the method: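 Broth microdilution. Read-out: MIC in μg/mL, taken as lowest concentration with no macroscopically visible growth.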

[4] = tested on: E. coli 25922; assay: Antibacterial activity, microbroth dilution MIC (Table 1); type: cell-based, Escherichia coli; conditions: Escherichia coli; microbroth dilution; control Gram-negative E. coli 25922 strain; read-out: MIC, 25922
Summary of the method: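 In a microbroth dilution test, the minimum inhibitory concentration was defined as the lowest compound level preventing growth seen by eye, and was given in μg/mL.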

| Compound | MIC [1] | MIC [2] | MIC [3] | MIC [4] |
| --- | --- | --- | --- | --- |
| CCc1c(-c2ccc3c(c2)cc(CNCc2cccc(F)c2)n3C)[nH]c(=O)c(C(=O)O)c1O [Cpd 298, 5-ethyl-6-(2-((3-fluorobenzylamino)methyl)-1-methyl-1H-indol-5-yl)-4-hydroxy-2-oxo-1,2-dihydropyridine-3-carboxylic acid] | < 1 mg/L | 1 to 3.5 mg/L (≈ 2.22 to 7.79 µM) | 12.5 to 150 mg/L (≈ 27.8 to 334 µM) | 1 to 3.5 mg/L (≈ 2.22 to 7.79 µM) |
| CCc1c(-c2ccc3c(c2)c(C)c(C)n3C)[nH]c(=O)c(C(=O)O)c1O [Cpd 30, 5-ethyl-4-hydroxy-2-oxo-6-(1,2,3-trimethyl-1H-indol-5-yl)-1,2-dihydropyridine-3-carboxylic acid] | 1 to 3.5 mg/L (≈ 2.94 to 10.3 µM) | 1 to 3.5 mg/L (≈ 2.94 to 10.3 µM) | 12.5 to 150 mg/L (≈ 36.7 to 441 µM) | 12.5 to 150 mg/L (≈ 36.7 to 441 µM) |
| CCc1c(-c2ccc3c(c2)cc(CN2CCC(N(C)C)C2)n3C)[nH]c(=O)c(C(=O)O)c1N (stereo not shown) [Cpd 332, 4-amino-6-(2-((3-(dimethylamino)pyrrolidin-1-yl)methyl)-1-methyl-1H-indol-5-yl)-5-ethyl-2-oxo-1,2-dihydropyridine-3-carboxylic acid] | 3.5 to 12.5 mg/L (≈ 8 to 28.6 µM) | 12.5 to 150 mg/L (≈ 28.6 to 343 µM) | 12.5 to 150 mg/L (≈ 28.6 to 343 µM) | 12.5 to 150 mg/L (≈ 28.6 to 343 µM) |
| CCc1cc(C(=O)O)c(=O)[nH]c1-c1cnc2c(c1)OCCN2C [Cpd 58, 5-ethyl-6-(4-methyl-3,4-dihydro-2H-pyrido[3,2-b][1,4]oxazin-7-yl)-2-oxo-1,2-dihydropyridine-3-carboxylic acid] | 3.5 to 12.5 mg/L (≈ 11.1 to 39.6 µM) | 12.5 to 150 mg/L (≈ 39.6 to 476 µM) | 12.5 to 150 mg/L (≈ 39.6 to 476 µM) | 12.5 to 150 mg/L (≈ 39.6 to 476 µM) |
| CCc1c(-c2ccc3c(c2)cc(CN2C[C@H]4CCC[C@@H](N(Cc5ccccc5)Cc5ccccc5)[C@H]4C2)n3C)[nH]c(=O)c(C(=O)O)c1O [Cpd 283, 6-(2-(((3aR,4R,7aS)-4-(dibenzylamino)-1H-isoindol-2(3H,3aH,4H,5H,6H,7H,7aH)-yl)methyl)-1-methyl-1H-indol-5-yl)-5-ethyl-4-hydroxy-2-oxo-1,2-dihydropyridine-3-carboxylic acid] | 12.5 to 150 mg/L (≈ 19.4 to 233 µM) | 12.5 to 150 mg/L (≈ 19.4 to 233 µM) | 12.5 to 150 mg/L (≈ 19.4 to 233 µM) | 12.5 to 150 mg/L (≈ 19.4 to 233 µM) |
| CCc1cc(C(=O)O)c(=O)[nH]c1-c1ccc2c(c1)cc(CN1CC3CCCNC3C1)n2C (stereo not shown) [Cpd 136, 5-ethyl-6-(1-methyl-2-((tetrahydro-1H-pyrrolo[3,4-b]pyridin-6(2H,7H,7aH)-yl)methyl)-1H-indol-5-yl)-2-oxo-1,2-dihydropyridine-3-carboxylic acid] | 1 to 3.5 mg/L (≈ 2.3 to 8.05 µM) | 12.5 to 150 mg/L (≈ 28.8 to 345 µM) | 12.5 to 150 mg/L (≈ 28.8 to 345 µM) | 3.5 to 12.5 mg/L (≈ 8.05 to 28.8 µM) |
| CCc1cc(C(=O)O)c(=O)[nH]c1-c1ccc2c(c1)cc(CN1C[C@H]3CC[C@@H](N(C)C)[C@H]3C1)n2C [Cpd 147, 6-(2-(((3aR,4R,6aS)-4-(dimethylamino)hexahydrocyclopenta[c]pyrrol-2(1H)-yl)methyl)-1-methyl-1H-indol-5-yl)-5-ethyl-2-oxo-1,2-dihydropyridine-3-carboxylic acid] | < 1 mg/L | 12.5 to 150 mg/L (≈ 27 to 324 µM) | 12.5 to 150 mg/L (≈ 27 to 324 µM) | < 1 mg/L |
| CCc1c(-c2ccc3c(c2)cc(C(C)(C)N2CCCC2)n3C)[nH]c(=O)c(C(=O)O)c1O [Cpd 307, 5-ethyl-4-hydroxy-6-(1-methyl-2-(2-(pyrrolidin-1-yl)propan-2-yl)-1H-indol-5-yl)-2-oxo-1,2-dihydropyridine-3-carboxylic acid] | < 1 mg/L | 1 to 3.5 mg/L (≈ 2.36 to 8.26 µM) | 12.5 to 150 mg/L (≈ 29.5 to 354 µM) | 12.5 to 150 mg/L (≈ 29.5 to 354 µM) |
| CCc1cc(C(=O)O)c(=O)[nH]c1-c1ccc2c(c1)cc(CNC)n2C [Cpd 112, 5-ethyl-6-(1-methyl-2-((methylamino)methyl)-1H-indol-5-yl)-2-oxo-1,2-dihydropyridine-3-carboxylic acid] | < 1 mg/L | 12.5 to 150 mg/L (≈ 36.8 to 442 µM) | 12.5 to 150 mg/L (≈ 36.8 to 442 µM) | < 1 mg/L |
| CCc1cc(C(=O)O)c(=O)[nH]c1-c1ccc2c(c1)cc(C(C)N1CCCC1)n2C (stereo not shown) [Cpd 157, 5-ethyl-6-(1-methyl-2-(1-(pyrrolidin-1-yl)ethyl)-1H-indol-5-yl)-2-oxo-1,2-dihydropyridine-3-carboxylic acid] | < 1 mg/L | 12.5 to 150 mg/L (≈ 31.8 to 381 µM) | 12.5 to 150 mg/L (≈ 31.8 to 381 µM) | 3.5 to 12.5 mg/L (≈ 8.89 to 31.8 µM) |

Source: patent publication US9409905B2, “Antibacterial compounds and methods for use” (PTC THERAPEUTICS, INC., priority 2011, dated 2016)
